Experimental findings from PubChem BioAssay (NCI) are described below.

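Compound exposure: 48 hours, 5 concentrations, 96-well plates. GI50 = concentration required for 50% inhibition of growth. TGI denotes the concentration required for complete inhibition of growth.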 A value given as a limit tells only on which side of the number the result lay.

The subject of the first test is SR leukemia. As to the kind of experiment: NCI anticancer screen, dose series, 48 h.
Regarding `O=C1c2ccccc2N2OC3(N4CCCC4)CCCC3C12c1ccccc1` (stereo not drawn), the TGI was above 100 µM.
In the case of `COc1ccc(C2C(Cl)C(=O)N2n2cnc3ccccc3c2=O)cc1OC` (stereo not drawn), the TGI was above 100 µM.
On the same count and under the same terms, the figure for `CC(C)=CCC12Cc3ccc(O)cc3C(C(C)CN1)C2C` (stereo not drawn) is above 100 µM; for `O=[N+]([O-])c1ccc(N=Nc2c(O)[nH]c3ccc([N+](=O)[O-])cc23)cc1` it is above 100 µM.
On to `CC12CC3(C)CC(C)(C1)CC(N=[N+]=[N-])(C2)C3`, for which the TGI is above 100 µM.
Still for that read-out and setting: in the case of `N=C(N)SCc1cn2ccccc2n1` it was above 100 µM.
With `Clc1ccc([O][In]([O]c2ccc(Cl)cn2)[O]c2ccc(Cl)cn2)nc1`, the GI50 is above 100 µM and the TGI is above 100 µM.
Take `Fc1cccc(Cl)c1C1SCc2nc3ccccc3n21` (stereo not drawn): the TGI stood at 54.4 µM.
On to `COC(=O)C1=CCON(c2ccccc2)C1c1ccccc1` (stereo not drawn), for which the TGI was above 100 µM.
Still for that read-out and setting: in the case of `CC(=O)N(CCN)CCN` it was above 10 µM; in that of `Cc1cc(O)c2c(c1)C(O)(c1ccc3c(c1O)C(=O)c1c(O)cc(C)cc1C3(O)C1OC(CO)C(O)C(O)C1O)c1cccc(O)c1C2=O` (stereo not drawn), 30.9 µM.
The same measure, in the same setting: the figure for `COC(=O)c1nc(NN)[nH]c(=O)c1CCCCCc1c(C(=O)OC)[nH]c(NN)cc1=O` is above 58.9 µM; for `C/C(=N/N(C=O)C[n+]1ccccc1)C(CN(CC(C)C)CC(C)C)C(=O)Nc1ccc(C)cc1C` (stereo not drawn) it is above 100 µM; for `O=C(c1ccccc1)c1c(CC(O)c2cccnc2)n(C(=O)c2ccccc2)c2ccccc12` (stereo not drawn) it is 35.1 µM.
The same measure, in the same setting: in the case of `Cc1nc2c(n1CC(C)(C)C)C(=O)c1ccccc1C2=O` it was above 100 µM; in that of `COc1ccc(C(C2=C(C)C(=O)c3ccccc3C2=O)c2ccc(C(C)C)cc(=O)c2O)cc1` (stereo not drawn), 21.3 µM.
`CC(C)N(C(=O)C12C3C4C1C1C2C3C41C(O)C(C)(C)C)C(C)C` (stereo not drawn) gave a TGI above 50 µM.

Another test deals with NCI-H522 lung. The test can be described thus: NCI anticancer screen, dose series, 48 h.
In the case of `O=C1c2ccccc2N2OC3(N4CCCC4)CCCC3C12c1ccccc1` (stereo not drawn), the TGI was above 100 µM.
Still for that read-out and setting: the figure for `COc1ccc(C2C(Cl)C(=O)N2n2cnc3ccccc3c2=O)cc1OC` (stereo not drawn) is above 100 µM; for `Nc1nc2c(ncn2Cc2ccccc2CCO)c(=O)[nH]1` it is above 100 µM; for `CCC1(Br)C(=O)NC(=O)N(C2CC(O)C(CO)O2)C1N=[N+]=[N-]` (stereo not drawn) it is above 100 µM.
Same read-out and setting: in the case of `O=[N+]([O-])c1ccc(N=Nc2c(O)[nH]c3ccc([N+](=O)[O-])cc23)cc1` it was 50.4 µM; in that of `CC12CC3(C)CC(C)(C1)CC(N=[N+]=[N-])(C2)C3`, above 100 µM.
On the same count and under the same terms, in the case of `N=C(N)SCc1cn2ccccc2n1` it was above 100 µM; in that of `Fc1cccc(Cl)c1C1SCc2nc3ccccc3n21` (stereo not drawn), 87 µM.
Take `COc1cc2nncc(Sc3cnnc4ccccc34)c2cc1OC`: the TGI came to 29.8 µM.
With `COC(=O)C1=CCON(c2ccccc2)C1c1ccccc1` (stereo not drawn), the TGI was 93.8 µM.
Still for that read-out and setting: the figure for `CC(=O)N(CCN)CCN` is above 10 µM.
The same measure, in the same setting: in the case of `COC(=O)c1nc(NN)[nH]c(=O)c1CCCCCc1c(C(=O)OC)[nH]c(NN)cc1=O` it was above 100 µM; in that of `CCc1ccccc1NC(=O)C(=O)C(C(=O)c1ccc(OC)cc1)c1ccc(OC)cc1` (stereo not drawn), above 100 µM; in that of `C/C(=N/N(C=O)C[n+]1ccccc1)C(CN(CC(C)C)CC(C)C)C(=O)Nc1ccc(C)cc1C` (stereo not drawn), above 100 µM.
In turn, `O=C(c1ccccc1)c1c(CC(O)c2cccnc2)n(C(=O)c2ccccc2)c2ccccc12` (stereo not drawn) displayed a TGI of 30.1 µM.
Still for that read-out and setting: the figure for `CSc1nc2c(c(O)c(C)c(=O)n2C2OC(COC(C)=O)C(OC(C)=O)C(OC(C)=O)C2OC(C)=O)c(=O)n1C` (stereo not drawn) is above 100 µM; for `Cc1nc2c(n1CC(C)(C)C)C(=O)c1ccccc1C2=O` it is above 100 µM.
Still for that read-out and setting: in the case of `COc1ccc(C(C2=C(C)C(=O)c3ccccc3C2=O)c2ccc(C(C)C)cc(=O)c2O)cc1` (stereo not drawn) it was 48.6 µM; in that of `CC(C)N(C(=O)C12C3C4C1C1C2C3C41C(O)C(C)(C)C)C(C)C` (stereo not drawn), above 50 µM; in that of `Cc1c(C)c2cc3c(=O)ccoc3c(C)c2oc1=O`, above 100 µM.

Another test relates to UO-31 renal. The test can be described thus: NCI anticancer screen, dose series, 48 h.
For the molecule `O=C1c2ccccc2N2OC3(N4CCCC4)CCCC3C12c1ccccc1` (stereo not drawn), the TGI was above 100 µM.
Same read-out and setting: in the case of `COc1ccc(C2C(Cl)C(=O)N2n2cnc3ccccc3c2=O)cc1OC` (stereo not drawn) it was above 100 µM.
Turning to `Nc1nc2c(ncn2Cc2ccccc2CCO)c(=O)[nH]1`, the TGI is above 100 µM.
Regarding `CC(C)=CCC12Cc3ccc(O)cc3C(C(C)CN1)C2C` (stereo not drawn), the TGI was above 100 µM.
Still for that read-out and setting: in the case of `CCC1(Br)C(=O)NC(=O)N(C2CC(O)C(CO)O2)C1N=[N+]=[N-]` (stereo not drawn) it was above 100 µM; in that of `O=[N+]([O-])c1ccc(N=Nc2c(O)[nH]c3ccc([N+](=O)[O-])cc23)cc1`, 59.8 µM.
Same read-out and setting: the figure for `CC12CC3(C)CC(C)(C1)CC(N=[N+]=[N-])(C2)C3` is above 100 µM.
On the same count and under the same terms, the figure for `N=C(N)SCc1cn2ccccc2n1` is above 100 µM.
For the molecule `Clc1ccc([O][In]([O]c2ccc(Cl)cn2)[O]c2ccc(Cl)cn2)nc1`, the GI50 was above 100 µM and the TGI is above 100 µM.
The molecule `Fc1cccc(Cl)c1C1SCc2nc3ccccc3n21` (stereo not drawn) returned a TGI above 100 µM.
For the molecule `COc1cc2nncc(Sc3cnnc4ccccc34)c2cc1OC`, the TGI worked out at 47.9 µM.
On the same count and under the same terms, the figure for `COC(=O)C1=CCON(c2ccccc2)C1c1ccccc1` (stereo not drawn) is above 100 µM; for `CC(=O)N(CCN)CCN` it is above 10 µM; for `Cc1cc(O)c2c(c1)C(O)(c1ccc3c(c1O)C(=O)c1c(O)cc(C)cc1C3(O)C1OC(CO)C(O)C(O)C1O)c1cccc(O)c1C2=O` (stereo not drawn) it is 32 µM.
Turning to `COC(=O)c1nc(NN)[nH]c(=O)c1CCCCCc1c(C(=O)OC)[nH]c(NN)cc1=O`, the TGI is above 100 µM.
`CCc1ccccc1NC(=O)C(=O)C(C(=O)c1ccc(OC)cc1)c1ccc(OC)cc1` (stereo not drawn): the TGI is above 100 µM.
Still for that read-out and setting: the figure for `C/C(=N/N(C=O)C[n+]1ccccc1)C(CN(CC(C)C)CC(C)C)C(=O)Nc1ccc(C)cc1C` (stereo not drawn) is 84.3 µM; for `O=C(c1ccccc1)c1c(CC(O)c2cccnc2)n(C(=O)c2ccccc2)c2ccccc12` (stereo not drawn) it is 32.6 µM; for `CSc1nc2c(c(O)c(C)c(=O)n2C2OC(COC(C)=O)C(OC(C)=O)C(OC(C)=O)C2OC(C)=O)c(=O)n1C` (stereo not drawn) it is above 100 µM.
Still for that read-out and setting: the figure for `Cc1nc2c(n1CC(C)(C)C)C(=O)c1ccccc1C2=O` is above 100 µM; for `COc1ccc(C(C2=C(C)C(=O)c3ccccc3C2=O)c2ccc(C(C)C)cc(=O)c2O)cc1` (stereo not drawn) it is 5.12 µM; for `CC(C)N(C(=O)C12C3C4C1C1C2C3C41C(O)C(C)(C)C)C(C)C` (stereo not drawn) it is above 50 µM.
Still for that read-out and setting: in the case of `Cc1c(C)c2cc3c(=O)ccoc3c(C)c2oc1=O` it was above 100 µM.

In another test the test system is K-562 leukemia. The test can be described thus: NCI anticancer screen, dose series, 48 h.
On to `O=C1c2ccccc2N2OC3(N4CCCC4)CCCC3C12c1ccccc1` (stereo not drawn), for which the TGI was above 100 µM.
Same read-out and setting: in the case of `COc1ccc(C2C(Cl)C(=O)N2n2cnc3ccccc3c2=O)cc1OC` (stereo not drawn) it was above 100 µM; in that of `Nc1nc2c(ncn2Cc2ccccc2CCO)c(=O)[nH]1`, above 100 µM.
On the same count and under the same terms, the figure for `CC(C)=CCC12Cc3ccc(O)cc3C(C(C)CN1)C2C` (stereo not drawn) is above 100 µM.
Still for that read-out and setting: the figure for `CCC1(Br)C(=O)NC(=O)N(C2CC(O)C(CO)O2)C1N=[N+]=[N-]` (stereo not drawn) is above 100 µM.
On to `O=[N+]([O-])c1ccc(N=Nc2c(O)[nH]c3ccc([N+](=O)[O-])cc23)cc1`, for which the TGI is above 100 µM.
The same measure, in the same setting: the figure for `CC12CC3(C)CC(C)(C1)CC(N=[N+]=[N-])(C2)C3` is above 100 µM.
Still for that read-out and setting: the figure for `N=C(N)SCc1cn2ccccc2n1` is above 100 µM; for `Fc1cccc(Cl)c1C1SCc2nc3ccccc3n21` (stereo not drawn) it is above 100 µM.
In turn, `COc1cc2nncc(Sc3cnnc4ccccc34)c2cc1OC` displayed a TGI above 100 µM.
`COC(=O)C1=CCON(c2ccccc2)C1c1ccccc1` (stereo not drawn): the TGI is above 100 µM.
In turn, `CC(=O)N(CCN)CCN` yielded a TGI above 10 µM.
For the molecule `Cc1cc(O)c2c(c1)C(O)(c1ccc3c(c1O)C(=O)c1c(O)cc(C)cc1C3(O)C1OC(CO)C(O)C(O)C1O)c1cccc(O)c1C2=O` (stereo not drawn), the TGI was determined as 18.9 µM.
The same measure, in the same setting: the figure for `COC(=O)c1nc(NN)[nH]c(=O)c1CCCCCc1c(C(=O)OC)[nH]c(NN)cc1=O` is above 100 µM; for `CCc1ccccc1NC(=O)C(=O)C(C(=O)c1ccc(OC)cc1)c1ccc(OC)cc1` (stereo not drawn) it is above 100 µM; for `C/C(=N/N(C=O)C[n+]1ccccc1)C(CN(CC(C)C)CC(C)C)C(=O)Nc1ccc(C)cc1C` (stereo not drawn) it is above 100 µM.
Still for that read-out and setting: in the case of `O=C(c1ccccc1)c1c(CC(O)c2cccnc2)n(C(=O)c2ccccc2)c2ccccc12` (stereo not drawn) it was 75.7 µM.
Still for that read-out and setting: the figure for `CSc1nc2c(c(O)c(C)c(=O)n2C2OC(COC(C)=O)C(OC(C)=O)C(OC(C)=O)C2OC(C)=O)c(=O)n1C` (stereo not drawn) is above 100 µM.
`Cc1nc2c(n1CC(C)(C)C)C(=O)c1ccccc1C2=O` registered a TGI above 100 µM.
Still for that read-out and setting: in the case of `COc1ccc(C(C2=C(C)C(=O)c3ccccc3C2=O)c2ccc(C(C)C)cc(=O)c2O)cc1` (stereo not drawn) it was above 100 µM; in that of `CC(C)N(C(=O)C12C3C4C1C1C2C3C41C(O)C(C)(C)C)C(C)C` (stereo not drawn), above 50 µM.
The same measure, in the same setting: in the case of `Cc1c(C)c2cc3c(=O)ccoc3c(C)c2oc1=O` it was above 100 µM.

Another test deals with SN12C renal. The test can be described thus: NCI anticancer screen, dose series, 48 h.
For `O=C1c2ccccc2N2OC3(N4CCCC4)CCCC3C12c1ccccc1` (stereo not drawn), the TGI was above 100 µM.
Still for that read-out and setting: the figure for `COc1ccc(C2C(Cl)C(=O)N2n2cnc3ccccc3c2=O)cc1OC` (stereo not drawn) is above 100 µM; for `Nc1nc2c(ncn2Cc2ccccc2CCO)c(=O)[nH]1` it is above 100 µM; for `CC(C)=CCC12Cc3ccc(O)cc3C(C(C)CN1)C2C` (stereo not drawn) it is above 100 µM.
Still for that read-out and setting: in the case of `CCC1(Br)C(=O)NC(=O)N(C2CC(O)C(CO)O2)C1N=[N+]=[N-]` (stereo not drawn) it was above 100 µM.
Still for that read-out and setting: in the case of `CC12CC3(C)CC(C)(C1)CC(N=[N+]=[N-])(C2)C3` it was above 100 µM; in that of `N=C(N)SCc1cn2ccccc2n1`, above 100 µM.
In the case of `Clc1ccc([O][In]([O]c2ccc(Cl)cn2)[O]c2ccc(Cl)cn2)nc1`, the GI50 was above 100 µM and the TGI is above 100 µM.
